Reference: patent US7510847B2, “Kidney-specific urate transporter and gene thereof” (Human Cell Systems, Inc., priority 2001, dated 2009)
One block for each molecule: values may come before it.

Columns and labels:
URAT1 [1] = molecular target: T1, URAT1 (Homo sapiens, UniProt Q96S37); assay: inhibition of [14C] uric acid uptake by oocytes injected with URAT1 cRNA
T1 sequence (Q96S37 1-553): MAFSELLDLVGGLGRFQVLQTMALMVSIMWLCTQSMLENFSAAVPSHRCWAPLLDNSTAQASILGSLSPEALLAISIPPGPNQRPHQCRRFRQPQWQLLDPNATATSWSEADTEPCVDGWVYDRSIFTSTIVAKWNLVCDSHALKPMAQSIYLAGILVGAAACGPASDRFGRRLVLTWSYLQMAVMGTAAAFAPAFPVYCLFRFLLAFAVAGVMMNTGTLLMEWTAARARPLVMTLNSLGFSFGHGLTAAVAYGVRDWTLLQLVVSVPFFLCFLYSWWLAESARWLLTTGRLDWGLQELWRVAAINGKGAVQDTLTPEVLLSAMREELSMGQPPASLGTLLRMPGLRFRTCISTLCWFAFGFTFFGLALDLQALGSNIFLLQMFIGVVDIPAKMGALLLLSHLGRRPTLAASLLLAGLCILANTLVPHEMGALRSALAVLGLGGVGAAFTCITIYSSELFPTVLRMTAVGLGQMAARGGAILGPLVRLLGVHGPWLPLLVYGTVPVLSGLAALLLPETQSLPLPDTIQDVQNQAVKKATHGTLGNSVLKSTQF
Experimental: In order to further study substrate selectivity of URAT1, in the uptake experiment system of [^14C] uric acid by the oocytes injected with URAT1 cRNA, various substances were added to the system and their effects were examined (inhibitory experiments). […] The uptake of 50 μM [^14C] uric acid was measured under the condition at pH 7.4 in the presence and absence of various compounds (unlabeled) at the concentrations shown in FIG. 8.

URAT1 [2] = molecular target: T1, URAT1; assay: uric acid uptake by URAT1 oocytes after preincubation with or pre-injection of organic acids (exchange substrate study); assay type: cell-based; design: expressed in transfected cells; host or cells: Xenopus laevis oocytes ("platanna") injected with URAT1 cRNA; details: for uptake of radiolabeled uric acid after precedent injection of organic acid into oocytes: 100 nl of 100 mM injected, compared to water injected, FIG. 7; for uptake of uric acid after preincubation of oocytes with organic acid: preincubation 1 mM, oocytes injected with URAT1 cRNA, FIG. 6
Experimental: Therefore, 100 nl of 100 mM non-radiolabeled L-lactic acid was precedently injected in the oocytes, and then the uptake of the radiolabeled uric acid was observed (FIG. 7).

URAT1 [3] = molecular target: T1, URAT1; assay: uptake of radiolabeled substrates by oocytes injected with URAT1 cRNA; assay type: cell-based; design: expressed in transfected cells; host or cells: Xenopus laevis oocytes ("platanna") injected with URAT1 cRNA; details: oocytes of platanna injected with URAT1 cRNA
Experimental: Michaelis-Menten dynamic experiment in urate transport by URAT1 was carried out. Concentration dependency of uric acid in the transport by URAT1 was studied by examining change of uptake amounts of uric acid at various concentrations by URAT1. The uptake experiment of the radiolabeled uric acid was carried out using oocytes injected with URAT1 cRNA according to the method described above.

[4] = substrate: O=c1[nH]c(=O)c2[nH]c(=O)[nH]c2[nH]1; assay: as above; assay type: cell-based, human; details: other: oocytes injected with URAT1 cRNA, FIG. 3
[5] = 50 μM [14C] uric acid, pH 7.4, unlabeled compound at concentrations shown in FIG. 8

uptake of 14C-labeled substrate by oocytes expressing URAT1 (URAT1 [3]): No uptake
uptake of radiolabeled uric acid after precedent injection of organic acid into oocytes (URAT1 [2]): no change
uptake of uric acid after preincubation of oocytes with organic acid (URAT1 [2]): not facilitated
inhibition of transport/uptake of [14C] uric acid by URAT1 (URAT1 [1]; [5]): did not show any inhibitory action
Molecule: Nc1ccc(C(=O)NCC(=O)O)cc1 [PAH, para-amino hippuric acid]

inhibition of transport/uptake of [14C] uric acid by URAT1 (URAT1 [1]; pH 7.4): significantly inhibited
Molecule: CCc1oc2ccccc2c1C(=O)c1cc(Br)c(O)c(Br)c1 [benz-bromarone]

uptake of uric acid after preincubation of oocytes with organic acid (URAT1 [2]): not facilitated
Molecule: CC(O)C(=O)O (stereo not shown) [lactic acid]

uptake of uric acid after preincubation of oocytes with organic acid (URAT1 [2]): significantly increased
inhibition of transport/uptake of [14C] uric acid by URAT1 (URAT1 [1]; [5]): significantly inhibited
Molecule: O=C(O)c1cccnc1 [nicotinic acid, 3-pyridine carboxylic acid]

inhibition of transport/uptake of [14C] uric acid by URAT1 (URAT1 [1]; [5]): significantly inhibited
Molecule: CCCN(CCC)S(=O)(=O)c1ccc(C(=O)O)cc1 [probenecid]

uptake of uric acid after preincubation of oocytes with organic acid (URAT1 [2]): significantly increased
inhibition of transport/uptake of [14C] uric acid by URAT1 (URAT1 [1]; [5]): significantly inhibited
Molecule: O=C(O)c1cnccn1 [pyrazine carboxylic acid]

The remaining lines, values behind:

Molecule: C[C@@H](O)C(=O)O [D-lactic acid]
inhibition of transport/uptake of [14C] uric acid by URAT1 (URAT1 [1]; [5]): significantly inhibited

Molecule: C[C@H](O)C(=O)O [L-lactic acid]
uptake of radiolabeled uric acid after precedent injection of organic acid into oocytes (URAT1 [2]): significantly high uptake
inhibition of transport/uptake of [14C] uric acid by URAT1 (URAT1 [1]; [5]): significantly inhibited

Molecule: CCCCc1nc(Cl)c(CO)n1Cc1ccc(-c2ccccc2-c2nn[nH]n2)cc1 [Losartan]
IC50 (URAT1 [1]): ~20 µM
inhibition of transport/uptake of [14C] uric acid by URAT1 (URAT1 [1]; [5]): significantly inhibited

Molecule: CC[N+](CC)(CC)CC [TEA, tetraethylammonium]
uptake of 14C-labeled substrate by oocytes expressing URAT1 (URAT1 [3]): No uptake
inhibition of transport/uptake of [14C] uric acid by URAT1 (URAT1 [1]; [5]): did not show any inhibitory action

Molecule: O=C1C(CC[S+]([O-])c2ccccc2)C(=O)N(c2ccccc2)N1c1ccccc1 (stereo not shown) [sulfinpyrazon]
inhibition of transport/uptake of [14C] uric acid by URAT1 (URAT1 [1]; [5]): significantly inhibited

Molecule: O=c1[nH]c(=O)c2[nH]c(=O)[nH]c2[nH]1 [uric acid]
uptake of 14C-labeled substrate by oocytes expressing URAT1 (URAT1 [3]): showed uptake

Molecule: Pyrazine dicarboxylic acid
inhibition of transport/uptake of [14C] uric acid by URAT1 (URAT1 [1]; [5]): slightly weak inhibitory effect

B1: URAT1 (Homo sapiens) (protein)
chain: MAFSELLDLVGGLGRFQVLQTMALMVSIMWLCTQSMLENFSAAVPSHRCWAPLLDNSTAQASILGSLSPEALLAISIPPGPNQRPHQCRRFRQPQWQLLDPNATATSWSEADTEPCVDGWVYDRSIFTSTIVAKWNLVCDSHALKPMAQSIYLAGILVGAAACGPASDRFGRRLVLTWSYLQMAVMGTAAAFAPAFPVYCLFRFLLAFAVAGVMMNTGTLLMEWTAARARPLVMTLNSLGFSFGHGLTAAVAYGVRDWTLLQLVVSVPFFLCFLYSWWLAESARWLLTTGRLDWGLQELWRVAAINGKGAVQDTLTPEVLLSAMREELSMGQPPASLGTLLRMPGLRFRTCISTLCWFAFGFTFFGLALDLQALGSNIFLLQMFIGVVDIPAKMGALLLLSHLGRRPTLAASLLLAGLCILANTLVPHEMGALRSALAVLGLGGVGAAFTCITIYSSELFPTVLRMTAVGLGQMAARGGAILGPLVRLLGVHGPWLPLLVYGTVPVLSGLAALLLPETQSLPLPDTIQDVQNQAVKKATHGTLGNSVLKSTQF
notes: expressed in transfected cells; host or cells: Xenopus laevis oocytes ("platanna") injected with URAT1 cRNA
Km [4]: 372 ± 25 µM
